Tests used:
Kir3.1/Kir3.4 = target: T1, Kir3.1/Kir3.4 (Mus musculus, UniProt P48548+P63250); experiment: two-electrode voltage clamp, Xenopus oocytes; type: cell-based; details: inhibition; high K+ (96 mM) pH 7.3
T1 construct: gene Kcnj3; heterotetramer expressed from cRNA in Xenopus laevis oocytes
T1 sequence (P63250 1-501): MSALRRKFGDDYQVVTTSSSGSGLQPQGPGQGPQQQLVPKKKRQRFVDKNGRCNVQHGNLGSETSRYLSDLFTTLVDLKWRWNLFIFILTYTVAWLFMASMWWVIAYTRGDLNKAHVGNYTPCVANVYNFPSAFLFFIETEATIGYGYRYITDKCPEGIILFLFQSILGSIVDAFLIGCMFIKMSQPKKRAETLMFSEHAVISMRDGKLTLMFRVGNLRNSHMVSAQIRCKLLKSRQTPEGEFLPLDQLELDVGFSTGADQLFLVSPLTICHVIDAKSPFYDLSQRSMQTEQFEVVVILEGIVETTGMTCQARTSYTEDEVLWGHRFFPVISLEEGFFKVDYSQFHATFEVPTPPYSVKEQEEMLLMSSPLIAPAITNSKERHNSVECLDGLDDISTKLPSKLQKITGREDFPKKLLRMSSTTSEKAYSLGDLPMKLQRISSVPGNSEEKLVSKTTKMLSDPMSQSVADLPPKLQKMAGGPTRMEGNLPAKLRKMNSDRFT
T1 sequence (P48548 1-419): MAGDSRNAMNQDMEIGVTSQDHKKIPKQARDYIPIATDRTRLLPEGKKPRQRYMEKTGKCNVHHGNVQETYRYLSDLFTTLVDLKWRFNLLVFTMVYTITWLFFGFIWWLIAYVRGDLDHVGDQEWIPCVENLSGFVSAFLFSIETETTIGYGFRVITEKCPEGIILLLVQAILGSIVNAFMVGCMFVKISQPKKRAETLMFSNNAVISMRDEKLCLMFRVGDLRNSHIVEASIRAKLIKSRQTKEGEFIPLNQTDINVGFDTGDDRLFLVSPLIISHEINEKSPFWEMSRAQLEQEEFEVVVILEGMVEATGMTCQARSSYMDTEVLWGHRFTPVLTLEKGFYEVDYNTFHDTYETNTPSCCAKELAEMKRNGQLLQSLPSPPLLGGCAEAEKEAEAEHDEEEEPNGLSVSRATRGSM

Kir6.2/SUR2A = tested on: T2, Kir6.2/SUR2A; experiment: Tl+ flux (FluxOR II), initial rate, HEK-293; type: cell-based; details: opener; 10 min preincubation
T2 construct: gene KCNJ11; hetero-octamer

SMILES | % reduction of current at 100 μM (Kir3.1/Kir3.4) | EC50 (Kir6.2/SUR2A)
O=C(c1cc(=O)[nH][nH]1)N1CCCC(CCc2ccccc2C(F)(F)F)C1 (centres unmarked) [CL-705G, 5-[(3-{2-[2-(trifluoromethyl)phenyl]ethyl}-1-piperidinyl)carbonyl]-1,2-dihydro-3H-pyrazol-3-one] | 17% | –
CC(NC(=NC#N)Nc1ccncc1)C(C)(C)C (centres unmarked) [pinacidil] | – | 11 µM

From PMC10319115, “CL-705G: a novel chemical Kir6.2-specific KATP channel opener” (Frontiers in Pharmacology, 2023)
